Assay results reported in ChEMBL document CHEMBL5696442, “Discovery of type II inhibitors of TGFβ-activated kinase 1 (TAK1) and mitogen-activated protein kinase kinase kinase kinase 2 (MAP4K2)” (J Med Chem, 2015).
Active and inactive are the calls of the source. The calls are words filed in the database; no cut-off is given here.

Key:
[1] = target: Calcium/calmodulin-dependent protein kinase type 1G (Homo sapiens) (UniProt Q96NX5); test: Inhibition of CAMK1G (unknown origin) at 10 uM by Ambit Kinomescan binding assay relative to control
Chain of Calcium/calmodulin-dependent protein kinase type 1G (Homo sapiens) (Q96NX5 whole entry): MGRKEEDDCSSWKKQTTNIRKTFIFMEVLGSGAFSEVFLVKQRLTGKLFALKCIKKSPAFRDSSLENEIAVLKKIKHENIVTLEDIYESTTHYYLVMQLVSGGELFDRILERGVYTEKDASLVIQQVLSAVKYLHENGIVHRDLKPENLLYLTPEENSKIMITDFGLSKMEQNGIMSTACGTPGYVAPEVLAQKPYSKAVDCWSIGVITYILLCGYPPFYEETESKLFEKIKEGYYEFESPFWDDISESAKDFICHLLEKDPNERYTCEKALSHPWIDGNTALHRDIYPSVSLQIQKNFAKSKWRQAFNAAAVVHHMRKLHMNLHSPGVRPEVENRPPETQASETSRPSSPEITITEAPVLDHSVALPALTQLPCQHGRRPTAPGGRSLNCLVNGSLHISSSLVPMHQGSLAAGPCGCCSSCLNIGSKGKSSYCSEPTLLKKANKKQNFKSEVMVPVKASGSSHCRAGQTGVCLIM

[2] = target: Dual specificity testis-specific protein kinase 1 (Homo sapiens) (UniProt Q15569); test: Inhibition of TESK1 (unknown origin) at 10 uM by Ambit Kinomescan binding assay
Chain of Dual specificity testis-specific protein kinase 1 (Homo sapiens) (Q15569 whole entry, looked up): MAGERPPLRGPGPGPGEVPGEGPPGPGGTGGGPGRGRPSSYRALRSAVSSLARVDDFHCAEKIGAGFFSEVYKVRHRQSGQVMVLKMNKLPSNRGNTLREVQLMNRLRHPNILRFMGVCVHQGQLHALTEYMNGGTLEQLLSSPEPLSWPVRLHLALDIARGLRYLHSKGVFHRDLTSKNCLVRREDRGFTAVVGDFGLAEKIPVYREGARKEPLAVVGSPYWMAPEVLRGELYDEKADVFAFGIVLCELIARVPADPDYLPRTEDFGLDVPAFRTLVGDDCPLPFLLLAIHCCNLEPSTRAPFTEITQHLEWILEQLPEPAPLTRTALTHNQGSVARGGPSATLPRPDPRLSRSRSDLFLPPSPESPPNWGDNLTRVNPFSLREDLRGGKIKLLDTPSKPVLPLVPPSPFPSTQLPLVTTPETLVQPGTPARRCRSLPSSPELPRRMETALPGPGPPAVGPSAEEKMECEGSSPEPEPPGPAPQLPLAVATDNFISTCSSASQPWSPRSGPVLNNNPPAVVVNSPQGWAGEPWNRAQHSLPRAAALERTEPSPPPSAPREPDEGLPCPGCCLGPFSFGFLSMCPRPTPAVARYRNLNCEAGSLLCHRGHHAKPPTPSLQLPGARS

[3] = target: Calcium/calmodulin-dependent protein kinase type II subunit alpha (Homo sapiens) (UniProt Q9UQM7); test: Inhibition of CAMK2a K2 labeling site in human Huh-7 cells at 10 uM by KiNativ Profiling analysis relative to control; type: cell-based
Chain of Calcium/calmodulin-dependent protein kinase type II subunit alpha (Homo sapiens) (Q9UQM7 whole entry): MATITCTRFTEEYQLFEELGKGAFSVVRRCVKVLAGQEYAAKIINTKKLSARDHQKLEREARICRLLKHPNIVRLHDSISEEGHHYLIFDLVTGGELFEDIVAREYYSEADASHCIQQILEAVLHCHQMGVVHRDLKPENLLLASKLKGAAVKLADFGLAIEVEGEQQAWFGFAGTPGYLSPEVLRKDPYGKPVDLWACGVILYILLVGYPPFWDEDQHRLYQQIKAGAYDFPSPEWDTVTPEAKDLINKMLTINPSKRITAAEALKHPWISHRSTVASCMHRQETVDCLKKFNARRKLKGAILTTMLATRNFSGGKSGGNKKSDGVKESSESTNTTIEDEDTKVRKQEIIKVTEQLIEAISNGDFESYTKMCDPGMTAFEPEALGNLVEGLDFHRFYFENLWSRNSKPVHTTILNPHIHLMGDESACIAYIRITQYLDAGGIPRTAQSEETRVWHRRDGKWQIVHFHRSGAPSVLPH

[4] = target: T1, Scaffold protein ILK (Homo sapiens) (UniProt Q13418); test: Inhibition of ILK K1 labeling site in human Huh-7 cells at 10 uM by KiNativ Profiling analysis relative to control; type: cell-based
T1 sequence (whole entry): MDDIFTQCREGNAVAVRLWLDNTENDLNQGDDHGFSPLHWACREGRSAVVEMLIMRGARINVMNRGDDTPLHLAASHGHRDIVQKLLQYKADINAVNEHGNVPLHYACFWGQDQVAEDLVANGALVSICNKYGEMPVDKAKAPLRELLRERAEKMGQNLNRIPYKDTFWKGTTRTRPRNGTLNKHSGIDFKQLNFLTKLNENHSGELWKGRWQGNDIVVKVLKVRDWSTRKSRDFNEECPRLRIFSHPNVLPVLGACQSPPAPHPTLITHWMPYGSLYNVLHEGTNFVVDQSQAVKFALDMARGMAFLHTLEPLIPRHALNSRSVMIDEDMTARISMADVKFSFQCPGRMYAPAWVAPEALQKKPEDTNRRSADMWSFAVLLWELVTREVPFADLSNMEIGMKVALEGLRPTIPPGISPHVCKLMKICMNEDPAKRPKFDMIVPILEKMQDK

[5] = target: 1-phosphatidylinositol 3-phosphate 5-kinase (Homo sapiens) (UniProt Q9Y2I7); test: Inhibition of PIP5K3 ATP labeling site in human Huh-7 cells at 1 uM by KiNativ Profiling analysis relative to control; type: cell-based
Chain of 1-phosphatidylinositol 3-phosphate 5-kinase (Homo sapiens) (Q9Y2I7 whole entry): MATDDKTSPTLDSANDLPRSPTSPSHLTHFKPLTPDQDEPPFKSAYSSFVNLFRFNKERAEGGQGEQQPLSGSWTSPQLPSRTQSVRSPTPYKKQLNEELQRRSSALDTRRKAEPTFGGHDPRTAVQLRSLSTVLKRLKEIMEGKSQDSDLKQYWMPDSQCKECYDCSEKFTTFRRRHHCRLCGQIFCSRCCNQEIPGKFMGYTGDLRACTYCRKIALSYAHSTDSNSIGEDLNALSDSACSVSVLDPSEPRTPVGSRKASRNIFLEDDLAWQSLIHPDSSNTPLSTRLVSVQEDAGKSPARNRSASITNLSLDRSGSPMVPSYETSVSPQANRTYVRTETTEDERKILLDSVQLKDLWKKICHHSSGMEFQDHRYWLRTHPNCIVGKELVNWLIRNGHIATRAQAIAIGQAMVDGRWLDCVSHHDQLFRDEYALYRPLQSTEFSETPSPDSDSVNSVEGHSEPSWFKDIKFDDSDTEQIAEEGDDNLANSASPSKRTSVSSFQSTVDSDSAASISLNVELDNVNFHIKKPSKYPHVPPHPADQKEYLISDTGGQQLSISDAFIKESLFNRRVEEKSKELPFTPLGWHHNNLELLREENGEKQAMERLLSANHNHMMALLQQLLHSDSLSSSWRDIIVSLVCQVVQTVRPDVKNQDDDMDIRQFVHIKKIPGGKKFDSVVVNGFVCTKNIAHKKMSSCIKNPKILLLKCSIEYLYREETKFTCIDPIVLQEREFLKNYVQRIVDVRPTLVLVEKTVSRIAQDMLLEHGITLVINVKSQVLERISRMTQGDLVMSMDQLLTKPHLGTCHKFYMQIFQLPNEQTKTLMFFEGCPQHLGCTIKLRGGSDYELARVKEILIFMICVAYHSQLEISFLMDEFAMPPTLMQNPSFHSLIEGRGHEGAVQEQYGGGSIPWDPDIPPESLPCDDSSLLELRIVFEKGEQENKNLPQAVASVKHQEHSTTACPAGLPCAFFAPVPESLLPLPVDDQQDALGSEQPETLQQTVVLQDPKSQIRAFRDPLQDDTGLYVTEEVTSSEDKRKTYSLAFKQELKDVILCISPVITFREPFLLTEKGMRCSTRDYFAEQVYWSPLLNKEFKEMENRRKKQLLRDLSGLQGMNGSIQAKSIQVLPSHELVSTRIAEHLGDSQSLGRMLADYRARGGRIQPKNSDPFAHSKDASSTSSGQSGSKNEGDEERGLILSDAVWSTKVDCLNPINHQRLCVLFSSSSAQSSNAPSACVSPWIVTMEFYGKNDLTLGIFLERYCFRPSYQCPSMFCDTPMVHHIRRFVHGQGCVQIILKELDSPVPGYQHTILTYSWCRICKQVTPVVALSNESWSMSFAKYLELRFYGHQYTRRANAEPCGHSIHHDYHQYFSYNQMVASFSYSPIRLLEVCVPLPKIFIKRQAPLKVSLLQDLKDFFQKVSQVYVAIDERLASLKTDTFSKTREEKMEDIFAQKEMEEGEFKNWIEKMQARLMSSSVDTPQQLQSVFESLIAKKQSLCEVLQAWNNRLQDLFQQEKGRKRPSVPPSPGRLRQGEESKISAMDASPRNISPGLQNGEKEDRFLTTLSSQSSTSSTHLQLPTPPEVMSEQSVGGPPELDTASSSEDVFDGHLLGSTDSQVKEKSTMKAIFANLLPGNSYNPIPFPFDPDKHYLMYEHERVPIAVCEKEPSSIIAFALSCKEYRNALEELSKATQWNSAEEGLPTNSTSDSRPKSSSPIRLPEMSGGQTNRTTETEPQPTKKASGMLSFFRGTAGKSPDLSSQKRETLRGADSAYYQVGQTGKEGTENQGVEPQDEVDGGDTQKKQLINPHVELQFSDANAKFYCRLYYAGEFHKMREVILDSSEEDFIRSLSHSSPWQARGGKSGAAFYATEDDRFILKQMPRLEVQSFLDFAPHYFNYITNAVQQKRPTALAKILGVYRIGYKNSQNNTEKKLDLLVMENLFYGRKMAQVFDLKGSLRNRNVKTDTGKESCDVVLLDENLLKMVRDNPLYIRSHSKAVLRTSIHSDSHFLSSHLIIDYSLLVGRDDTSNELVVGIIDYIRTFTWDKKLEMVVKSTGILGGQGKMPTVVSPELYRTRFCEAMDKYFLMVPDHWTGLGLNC

[6] = target: T2, Mitogen-activated protein kinase 12 (Homo sapiens) (UniProt P53778); test: Inhibition of p38gamma (unknown origin) at 10 uM by Ambit Kinomescan binding assay relative to control; values are per cent of control
T2 sequence (whole entry): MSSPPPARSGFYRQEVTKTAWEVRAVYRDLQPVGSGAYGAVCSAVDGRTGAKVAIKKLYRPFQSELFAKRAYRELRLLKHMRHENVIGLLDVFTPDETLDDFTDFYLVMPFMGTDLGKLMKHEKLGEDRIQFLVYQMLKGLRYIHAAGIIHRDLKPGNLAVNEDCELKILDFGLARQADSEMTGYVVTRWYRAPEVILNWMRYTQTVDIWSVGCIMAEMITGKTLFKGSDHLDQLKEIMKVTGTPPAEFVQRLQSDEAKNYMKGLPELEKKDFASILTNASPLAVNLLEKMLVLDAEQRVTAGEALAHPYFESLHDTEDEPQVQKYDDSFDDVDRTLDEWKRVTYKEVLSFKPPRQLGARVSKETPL

[7] = target: Cyclin-dependent kinase 12 (Homo sapiens) (UniProt Q9NYV4); test: Inhibition of CRK7 Lys2 labeling site in human Huh-7 cell lysate at 1 uM by KiNativ Profiling analysis relative to control; type: subcellular
[8] = target: eIF-2-alpha kinase GCN2 (Homo sapiens) (UniProt Q9P2K8); test: Inhibition of GCN2 domain2 Lys2 labeling site in human Huh-7 cell lysate at 1 uM by KiNativ Profiling analysis relative to control; type: subcellular
[9] = target: T3, Serine/threonine-protein kinase D3 (Homo sapiens) (UniProt O94806); test: Inhibition of PKD3 Lys2 labeling site in human A-375 cells at 5 uM by KiNativ Profiling analysis relative to control; type: cell-based
T3 sequence (whole entry): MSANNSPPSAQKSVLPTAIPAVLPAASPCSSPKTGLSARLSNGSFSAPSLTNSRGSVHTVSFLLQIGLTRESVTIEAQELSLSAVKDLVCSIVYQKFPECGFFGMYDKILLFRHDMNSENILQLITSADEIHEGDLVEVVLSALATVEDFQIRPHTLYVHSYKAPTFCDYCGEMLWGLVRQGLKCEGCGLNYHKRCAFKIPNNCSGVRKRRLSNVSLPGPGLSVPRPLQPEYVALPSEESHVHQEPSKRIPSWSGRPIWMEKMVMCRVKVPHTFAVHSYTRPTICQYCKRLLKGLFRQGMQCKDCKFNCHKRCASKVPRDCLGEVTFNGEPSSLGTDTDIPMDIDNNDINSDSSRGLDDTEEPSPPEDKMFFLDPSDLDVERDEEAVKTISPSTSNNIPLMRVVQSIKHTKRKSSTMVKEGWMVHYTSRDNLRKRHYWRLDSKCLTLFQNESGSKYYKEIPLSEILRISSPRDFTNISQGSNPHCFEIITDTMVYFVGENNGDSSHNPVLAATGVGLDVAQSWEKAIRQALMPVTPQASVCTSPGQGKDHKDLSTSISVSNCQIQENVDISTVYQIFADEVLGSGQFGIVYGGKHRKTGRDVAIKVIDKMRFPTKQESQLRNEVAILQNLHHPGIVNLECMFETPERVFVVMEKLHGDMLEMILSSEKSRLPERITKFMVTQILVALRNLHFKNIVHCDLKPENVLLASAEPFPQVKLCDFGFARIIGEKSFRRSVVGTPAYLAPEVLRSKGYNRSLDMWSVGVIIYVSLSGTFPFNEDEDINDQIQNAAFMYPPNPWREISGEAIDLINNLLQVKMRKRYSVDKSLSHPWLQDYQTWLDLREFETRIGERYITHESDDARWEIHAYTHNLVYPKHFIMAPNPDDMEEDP

[10] = target: Myosin light chain kinase (Homo sapiens) (UniProt Q32MK0); test: Inhibition of MLCK (unknown origin) at 1 uM by Ambit Kinomescan binding assay relative to control; values are per cent of control
Chain of Myosin light chain kinase (Homo sapiens) (Q32MK0 whole entry): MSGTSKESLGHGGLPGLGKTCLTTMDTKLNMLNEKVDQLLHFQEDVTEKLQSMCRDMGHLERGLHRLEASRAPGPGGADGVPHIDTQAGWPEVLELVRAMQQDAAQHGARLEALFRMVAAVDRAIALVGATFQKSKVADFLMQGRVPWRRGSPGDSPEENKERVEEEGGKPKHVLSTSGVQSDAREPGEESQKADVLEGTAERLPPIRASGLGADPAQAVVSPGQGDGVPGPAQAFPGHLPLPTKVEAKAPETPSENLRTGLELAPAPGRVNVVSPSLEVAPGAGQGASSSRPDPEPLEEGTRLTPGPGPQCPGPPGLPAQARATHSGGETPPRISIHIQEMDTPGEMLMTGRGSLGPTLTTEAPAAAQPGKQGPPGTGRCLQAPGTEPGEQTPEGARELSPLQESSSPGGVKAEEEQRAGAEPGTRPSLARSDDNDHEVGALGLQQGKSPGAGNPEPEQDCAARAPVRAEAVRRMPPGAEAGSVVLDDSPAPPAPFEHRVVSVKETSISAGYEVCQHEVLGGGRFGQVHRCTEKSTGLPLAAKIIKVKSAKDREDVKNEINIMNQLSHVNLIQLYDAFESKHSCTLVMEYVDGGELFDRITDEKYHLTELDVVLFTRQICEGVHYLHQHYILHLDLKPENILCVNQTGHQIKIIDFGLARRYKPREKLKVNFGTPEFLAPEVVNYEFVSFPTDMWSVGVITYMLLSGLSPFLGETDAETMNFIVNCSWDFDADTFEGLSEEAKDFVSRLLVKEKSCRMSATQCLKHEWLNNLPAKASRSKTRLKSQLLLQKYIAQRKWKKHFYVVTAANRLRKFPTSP

**Q.** How did the inhibition [1] turn out when `CCN1CCN(Cc2ccc(NC(=O)c3ccc(C)c(Oc4ccnc5[nH]ccc45)c3)cc2C(F)(F)F)CC1` was run?
**A.** 20%

**Q.** What about the inhibition [2] of the same molecule?
**A.** inactive

**Q.** And the inhibition [3]?
**A.** 6.2%

**Q.** What about the inhibition [4] of the same molecule?
**A.** -5.7%

**Q.** What about the inhibition [5] of the same molecule?
**A.** -3.1%

**Q.** What about the percent of control [6] of the same molecule?
**A.** 0%

**Q.** Which results are given for `CNc1cc(Oc2cc(C(=O)Nc3cc(N4CCN(C)CC4)cc(C(F)(F)F)c3)ccc2C)ncn1`?
**A.** inhibition [7]: -8.3%; inhibition [8]: 2.5%

**Q.** Which results are given for `CCN1CCN(Cc2ccc(NC(=O)c3ccc(C)c(/C=C/c4cnc5[nH]ccc5c4OC)c3)cc2C(F)(F)F)CC1`?
**A.** inhibition [9]: 7.3%; residual activity [10]: 100%
